Measured values published in patent publication US12187709B2 (Genentech, Inc., priority 2021, dated 2025).

What was measured:
Cbl-b = Cbl-b (Homo sapiens (Human), UniProt Q13191); assay: Cbl-b LCK Ub TR-FRET assay (Cbl-b Lck HTRF); assay type: biochemical; settings: for IC50: Cbl-b LCK Ub TR-FRET; for fold-selectivity (Cbl-b over C-cbl) / (fold-selectivity) Cbl-b and C-Cbl Selectivity: ratio C-cbl Lck HTRF IC50 / Cbl-b Lck HTRF IC50
Method in brief: (§1)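 After the ubiquitination reaction, detection mixture was added and plates incubated 20 min at room temperature before reading. IC50 values were calculated with wells lacking LCK as the low control and DMSO as the high control.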

c-Cbl = c-Cbl (Homo sapiens (Human), UniProt P22681); assay: C-Cbl LCK Ub TR-FRET assay (C-cbl Lck HTRF); assay type: biochemical
Sequence of c-Cbl (P22681 47-435): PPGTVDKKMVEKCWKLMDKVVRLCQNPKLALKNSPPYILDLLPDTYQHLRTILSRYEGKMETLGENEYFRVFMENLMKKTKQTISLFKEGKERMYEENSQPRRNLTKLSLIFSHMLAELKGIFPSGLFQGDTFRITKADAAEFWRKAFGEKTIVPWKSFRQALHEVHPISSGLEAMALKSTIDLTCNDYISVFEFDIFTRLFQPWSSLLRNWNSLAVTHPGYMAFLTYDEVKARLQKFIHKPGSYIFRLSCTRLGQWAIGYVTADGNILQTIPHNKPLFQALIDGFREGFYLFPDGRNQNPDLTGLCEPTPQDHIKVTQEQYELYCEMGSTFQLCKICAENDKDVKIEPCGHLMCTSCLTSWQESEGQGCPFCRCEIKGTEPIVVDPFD
Method in brief: as §1

[1] = molecular target: Human Cbl-b (residues 40-426) (Homo sapiens (Human), UniProt Q13191); assay: Cbl-b SPR assay; assay type: binding; settings: for Fold of selectivity: C-cbl SPR Kd vs Cbl-b SPR Kd; for Kd: SPR, 20° C.
Sequence of Human Cbl-b (residues 40-426) (Q13191 40-426): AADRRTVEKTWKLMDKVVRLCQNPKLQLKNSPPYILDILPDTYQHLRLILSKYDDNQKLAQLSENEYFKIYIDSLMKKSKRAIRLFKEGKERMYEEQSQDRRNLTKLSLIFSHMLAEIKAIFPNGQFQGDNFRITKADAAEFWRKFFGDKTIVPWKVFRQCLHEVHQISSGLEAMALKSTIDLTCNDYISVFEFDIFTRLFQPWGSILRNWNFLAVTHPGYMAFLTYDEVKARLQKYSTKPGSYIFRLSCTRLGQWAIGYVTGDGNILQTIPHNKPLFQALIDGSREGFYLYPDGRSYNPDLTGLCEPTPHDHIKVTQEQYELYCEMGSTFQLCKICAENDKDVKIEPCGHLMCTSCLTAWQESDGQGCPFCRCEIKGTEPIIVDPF
Method in brief: (§2)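 First, protein is captured to 1300-1500 RU. Then compound runs in single cycle kinetics, a blank plus 5 two-fold concentrations up to 500 nM (120 s contact, 50 μl/min, 450 s dissociation). Chaser injections (20 s, 30 μl/min) track occupancy, giving kd, which is fixed when fitting the titration.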

c-Cbl (residues 47-435) = c-Cbl (residues 47-435) (Homo sapiens (Human), UniProt P22681); assay: c-Cbl SPR assay; assay type: binding; settings: 20° C.
Sequence of c-Cbl (residues 47-435) (P22681 47-435): as the sequence (P22681 47-435) above
Method in brief: as §2

Sequence of Cbl-b (Q13191 40-426): as the sequence (Q13191 40-426) above

Compound	IC50 (Cbl-b)	fold-selectivity (Cbl-b over C-cbl) (Cbl-b)	IC50 (c-Cbl)	Fold of selectivity [1]	Kd [1]	Kd (c-Cbl (residues 47-435))	IC50 (Cbl-b; Example 121)	(fold-selectivity) Cbl-b and C-Cbl Selectivity (Cbl-b)
CCOc1cc(N2Cc3c(cc(CNC4(C)CCC4)cc3C(F)(F)F)C2=O)cc([C@]2(c3nncn3C)C[C@H](OC)C2)c1 [Compound 202, 2-(3-ethoxy-5-((1r,3r)-3-methoxy-1-(4-methyl-4H-1,2,4-triazol-3-yl)cyclobutyl)phenyl)-6-(((1-methylcyclobutyl)amino)methyl)-4-(trifluoromethyl)isoindolin-1-one]	11 nM	1.8x	21 nM	5.2×	3.3 nM	17 nM	–	–
CO[C@H]1C[C@](c2cc(OC(C)C)cc(N3Cc4c(cc(CNC5(C)CCC5)cc4C(F)(F)F)C3=O)c2)(c2nncn2C)C1 [Compound 207, 2-(3-isopropoxy-5-((1r,3r)-3-methoxy-1-(4-methyl-4H-1,2,4-triazol-3-yl)cyclobutyl)phenyl)-6-(((1-methylcyclobutyl)amino)methyl)-4-(trifluoromethyl)isoindolin-1-one]	24 nM	2.2x	52 nM	2.6×	9.3 nM	24 nM	–	–
C[C@@H](NC1(C)CCC1)c1cc(Cl)c2c(c1)C(=O)N(c1cccc([C@]3(c4nncn4C)C[C@H](F)C3)c1)C2 (single isomer, unassigned) [Compound 311]	4 nM	1.1x	4.3 nM	2.5×	0.1 nM	0.25 nM	–	–
Cn1cnnc1[C@@](O)(c1cccc(N2Cc3c(cc(CNC4(C)CCC4)cc3C(F)(F)F)C2=O)c1)C1COC1 (single isomer, unassigned) [Compound 143]	62 nM	3.1x	190 nM	4.3×	58 nM	220 nM	–	–
Cn1cnnc1[C@H](c1cccc(N2Cc3c(cc(CNC4(C)CCC4)cc3C(F)(F)F)C2=O)c1)C1CCCC1 [Compound 257, (S)-2-(3-(cyclopentyl(4-methyl-4H-1,2,4-triazol-3-yl)methyl)phenyl)-6-(((1-methylcyclobutyl)amino)methyl)-4-(trifluoromethyl)isoindolin-1-one]	22 nM	1.2x	27 nM	5.7×	0.65 nM	3.7 nM	–	–
CO[C@H]1C[C@](c2cccc(N3Cc4c(cc(CNC5CC6C(C5)C6(F)F)cc4C(F)(F)F)C3=O)c2)(c2nncn2C)C1 (stereo partly drawn) [Compound 427, 6-(((6,6-difluorobicyclo[3.1.0]hexan-3-y)amino)methyl)-2-(3-((1r,3r)-3-methoxy-1-(4-methyl-4H-1,2,4-triazol-3-yl)cyclobutyl)phenyl)-4-(trifluoromethyl)isoindolin-1-one]	–	–	22 nM	14×	2.6 nM	37 nM	7 nM	3.1x
CC[C@H]1C[C@@](c2cccc(N3Cc4c(Cl)cc(CNC5(C)CCC5)cc4C3=O)c2)(c2nncn2C)C1 [Compound 374, 4-chloro-2-(3-((1r,3s)-3-ethyl-1-(4-methyl-4H-1,2,4-triazol-3-yl)cyclobutyl)phenyl)-6-(((1-methylcyclobutyl)amino)methyl)isoindolin-1-one]	6.6 nM	2.0x	14 nM	11×	0.95 nM	10 nM	–	–
CC[C@@](O)(c1cccc(N2Cc3c(cc(CNC4(C)CCC4)cc3C(F)(F)F)C2=O)c1)c1nncn1C (single isomer, unassigned) [Compound 392]	10 nM	1.4x	14 nM	5.1×	7.5 nM	38 nM	–	–
COC1CC([C@@H](c2cccc(N3Cc4c(cc(CNC5(C)CCC5)cc4C(F)(F)F)C3=O)c2)c2nncn2C)C1 (single isomer, unassigned) [Compound 134]	9.8 nM	1.8x	17 nM	6.6×	1.9 nM	13 nM	–	–
COC1CC([C@H](c2cccc(N3Cc4c(cc(CNC5(C)CCC5)cc4C(F)(F)F)C3=O)c2)c2nncn2C)C1 (single isomer, unassigned) [Compound 132]	600 nM	8.0x	4800 nM	15×	360 nM	5600 nM	–	–
Cn1cnnc1C1(c2cccc(N3Cc4c(cc(CNC5(C)CCC5)cc4C(F)(F)F)C3=O)c2)CC2(CC(F)(F)C2)C1 [Compound 94, 2-(3-(6,6-difluoro-2-(4-methyl-4H-1,2,4-triazol-3-yl)spiro[3.3]heptan-2-yl)phenyl)-6-(((1-methylcyclobutyl)amino)methyl)-4-(trifluoromethyl)isoindolin-1-one]	21 nM	6.0x	120 nM	19×	7.4 nM	140 nM	–	–
Cn1cnnc1[C@]1(c2cccc(N3Cc4c(cc(CNC5(C)CCC5)cc4C(F)(F)F)C3=O)c2)C[C@H](O)C1 [Compound 21, 2-(3-((1s,3s)-3-hydroxy-1-(4-methyl-4H-1,2,4-triazol-3-yl)cyclobutyl)phenyl)-6-(((1-methylcyclobutyl)amino)methyl)-4-(trifluoromethyl)isoindolin-1-one]	18 nM	(2.3x)	41 nM	5.3×	4.1 nM	22 nM	–	–
CO[C@H]1C[C@@](c2cc(N[C@H](C)CC#N)cc(N3Cc4c(cc(CNC5(C)CCC5)cc4C(F)(F)F)C3=O)c2)(c2nncn2C)C1 (single isomer, unassigned) [Compound 228]	16 nM	1.3x	21 nM	8.7×	1.9 nM	16 nM	–	–
Cn1cnnc1[C@H](c1cccc(N2Cc3c(cc(CNC4(C)CCC4)cc3C(F)(F)F)C2=O)c1)C1CC(OC(F)F)C1 (single isomer, unassigned) [Compound 390]	5.5 nM	1.0x	5.5 nM	3.0×	0.6 nM	1.7 nM	–	–
Cn1cnnc1[C@]1(c2cccc(N3Cc4c(cc(CNC5(C)CCC5)cc4C(F)F)C3=O)c2)C[C@H](F)C1 [Compound 247, 4-(difluoromethyl)-2-(3-((1s,3s)-3-fluoro-1-(4-methyl-4H-1,2,4-triazol-3-yl)cyclobutyl)phenyl)-6-(((1-methylcyclobutyl)amino)methyl)isoindolin-1-one]	9.8 nM	1.9x	18 nM	5.5×	2.2 nM	12 nM	–	–
C[C@H](NC1(C)CCC1)c1cc2c(c(C(F)(F)F)c1)CN(c1cccc([C@H](c3nncn3C)C3COC3)c1)C2=O [Compound 445, 2-(3-((R)-(4-methyl-4H-1,2,4-triazol-3-yl)(oxetan-3-yl)methyl)phenyl)-6-((S)-1-((1-methylcyclobutyl)amino)ethyl)-4-(trifluoromethyl)isoindolin-1-one]	–	–	30 nM	4.7×	4.8 nM	23 nM	9.7 nM	3.1x
